Experimental data published in US20230107274A1, “AN ORAL PHARMACEUTICAL COMPOSITION COMPRISING AN EXTRACT OF COMBINED HERBS COMPRISING LONGANAE ARILLUS FOR THE TREATMENT OR ALLEVIATION OF INFLAMMATORY DISEASE AND THE USE THEREOF” (MEDIHELPLINE CO., LTD, priority 2020, published 2023).

Key:
TSLP = experiment: Inhibition of cytokine expression in TNF alpha-induced HaCaT cell (Real-time PCR): TSLP; type: cell-based, human; details: TNFα 50 ng/ml, Dexamethasone 200 nM, TNFα+DIW control 132.4692
Experimental: (§1) In order to determine the anti-inflammatory activity of inventive extract, following inhibition test of cytokine expression using HaCaT cell was performed according to the procedure disclosed in the literature (Jeong et al., 2019, J. Invest. Dermatol., May; 139 (5): pp 1098-1109).
(§2) HaCaT cell (human epithelial keratinocyte cell, 300493, CLS) was inoculated into DMEM medium containing 10% Fetal bovine serum, 100 units/ml of penicillin, 100 μg/ml of streptomycin (D6429, Sigma-Aldrich Co. Ltd) and was incubated in the incubator (HERA cell 150i, Thermo Fisher Scientific Co. Ltd.) maintaining optimum humidity (85-95%) and 5% CO2 atmosphere.
(§3) For performing gene expression test, the incubated cells were transferred to 12 wells and 50 ng/ml of TNF alpha (RC214-12, Biobasic Co. Ltd) was treated therewith for 1 hour to induce inflammatory response.
(§4) 1 hour after inducing the inflammation, 1 μg/ml of inventive extract prepared in Examples was treated with identical medium and subjected to incubation for 1 hour. After the incubation, RNA (FATRR-001, Favorgen) was extracted from the cell and cDNA was synthesized from the RNA using by cDNA synthesis kit (RRO36A, TAKARA). […]

IL-1β = experiment: Inhibition of cytokine expression in TNF alpha-induced HaCaT cell (Real-time PCR): IL-1β; type: cell-based, human; details: TNFα 50 ng/ml, Dexamethasone 200 nM, TNFα+DIW control 4.152715
Experimental: as §1, §2, §3, §4

[1] = tested on: MIA(Monosodium iodoacetate)-induced osteoarthritis rat model; experiment: Bone injury by micro-CT in MIA-induced osteoarthritis rat model; type: in vivo; details: 30 mg/kg oral once a day; vehicle 45.7
Experimental: (§5) In order to evaluate the efficacy of test sample on MIA(Monosodium iodoacetate)-induced osteoarthritis rat model, following test was performed at “Joint and Immune disease T2B center(chief MD. PARK, Sung-whan) located in “The Catholic University of Korea, Seoul ST. Mary's Hospital, Seoul).
(§6) (1) Test animals: Rats (Male Wista rats, Central Lab. Animal, Seoul, Korea, 7 to 8 weeks aged, 200 to 250 g) were bred in the well-controlled breeding room in polysulfone cage (2-3 […] per cage) maintaining the temperature of 21±2° C. and relative humidity of 50±20% with the light cycle of day/dark (08:00˜20:00) at the interval of 12 hours and acclimated to the surround environment
(§7) Test method: 3 mg/kg of Monosodium iodoacetate (MIA, 12512, Sigma, Poole, UK) was dissolved in the injection saline to re reach to 60 mg/ml concentration on the day of the experiment (day 0). […]
The degree of bone injury around femur area of the knee joint in each group consisting of 3 rats, was determined using X-ray source (70 kV, 142 uA, AI 0.5 mm filter, rotation step 0.6°) and animal scanner (SKYSCAN1272 ex-vivo micro-CT, Bruker micro CT, Belgium) to perform micro-CT photography at 15 μm of Pixel resolution including section formation (NRecon), section rotation (Data Viewer), data Analysis (CTAN), Volume rendering generation (CTVox), and surface rendering (CTAN+CTVol).

[2] = tested on: MIA(Monosodium iodoacetate)-induced osteoarthritis rat model; experiment: Bone injury by histopathological analysis (Safranin O; Total Mankin score, OARSI score) in MIA-induced osteoarthritis rat model; type: in vivo; details: 30 mg/kg oral once a day
Experimental: as §5, §6
as §7, with “0). After dividing each groups, the experimental animals were placed in the anesthesia chamber and anesthetized with diethyl ether.” for “0).”
The histopathological analysis was performed by photographing the femur area of knee joint (×200 fold). The test result was calculated and evaluated according to the known methods including Total Mankin score (Bulstra S K et al., 1989, Clin Orthop Relat Res: 294-302.) and OARSI score (Pritzker K. P. H. et al., 2006, Osteoarthritis Cartilage 14:13-29).

[3] = tested on: MIA(Monosodium iodoacetate)-induced osteoarthritis rat model; experiment: Pain threshold (dynamic plantar aesthesiometer) in MIA-induced osteoarthritis rat model; type: in vivo
Experimental: as §5, §6
(§8) Test method: 3 mg/kg of Monosodium iodoacetate (MIA, 12512, Sigma, Poole, UK) was dissolved in the injection saline to re reach to 60 mg/ml concentration on the day of the experiment (day 0). After dividing each groups, the experimental animals were placed in the anesthesia chamber and anesthetized with diethyl ether. 50 μL of MIA (3 mg/body) was injected into the right knee joint through the infrapatellar ligament using a 1cc syringe (26.5 gauge) in order to inducing osteoarthritis
(§9) (4) Treatment route: oral administration 3 days after inducing osteoarthritis (once a day)
(§10) After inducing osteoarthritis with MIA, test sample treatment groups (G2, G3) were prepared by homogenizing the test samples with vehicle (saline) according to the prescribed dose and orally administrating 1 mL of test sample once a day.
The positive control group (G4) was homogenized to the vehicle according to the prescribed dose and orally administered once a day.
24 rats were divided into 4 groups per 6 rats, and the test samples and positive control substance were orally administered at a specified time.
The pain threshold (nociceptive latency, threshold) was determined by using dynamic plantar aesthesiometer (Ugo Basile, 37400, Comerio, Italy), a device that gradually increases the force on the feet of Male Wistarats over a certain period of time, according to a […] evaluation method to measure pain thresholds ((Kwon J Y et al., Sci Rep. 2018 Sep. 14; 8(1):13832)
Prior to measurement, the animal was placed in an acrylic box with a wire mesh bench and acclimated for five minutes.
The pain threshold was determined by measuring the weight showing paw withdrawal behavior which animal withdraws its feet by applying a slow force of 0 to 50 g over 10 seconds using metal filaments in the center of each animal's right hind foot.
To avoid tissue damage, the cut-off threshold was set to 50 g, and the measurement time was set to the day before the inducing day of osteoarthritis by the treatment of MIA to calculate base line value in the normal control group (G1), test sample groups (G2, G3) and positive control group (G4) and the same value was obtained in the base line (day 3).
The same value was measured before the treatment of test samples (day 3) and the value was measured once a week at a certain time by administering the test samples in the […] of rats.
The test result of pain threshold was calculated according to (a) paw withdrawal latencies (sec) and (b) paw withdrawal threshold (g).

[4] = tested on: MIA(Monosodium iodoacetate)-induced osteoarthritis rat model; experiment: Weight bearing in MIA-induced osteoarthritis rat model; type: in vivo
Experimental: as §5, §6, §8, §9, §10
In order to measure the change in weight (or weight distribution) between normal hind legs (left) and arthritis-induced hind legs (right), the load of both hind feet was determined using testing apparatus (Model 600, IITC, USA) according to the method described in the literature (Kwon J Y et al., Sci Rep. 2018 Sep. 14; 8(1):13832).
The test animal shall be correctly located in the holder and fixed so that both feet can be stepped symmetrically, since the load can be varied depending on the position of the animal's foot. The particular person performs the fixation to reduce the possible error to the maximum extent.
When each animal was correctly located in the holder, the machine was operated and the weight bearing of each group was measured twice for 5 seconds per measurement.
The mean value for each test result was digitized into the weight bearing(g) of each foot.
After obtaining a baseline value before MIA treatment (Day 0), the weight bearing in the normal control group (G1), test sample groups (G2, G3) and positive control group (G4), was determined at a certain time twice a week, 3 days before the treatment of test sample (day 3).
The test results of the weight load measurement were transformed into each weight bearing ratio according to below Math 1.
Weight ratio (%)={weight of right hind limb/(weight of right hind limb+weight of left hind limb)}×100 [Math.1]

`C[C@@H]1C[C@H]2[C@@H]3CCC4=CC(=O)C=C[C@]4(C)[C@@]3(F)[C@@H](O)C[C@]2(C)[C@@]1(O)C(=O)CO` [Dex, Dexamethasone] was tested, and the “TSLP expression (RT-PCR, relative to untreated = 1)” value (TSLP) was 52.49 and the “IL-1β expression (RT-PCR, relative to untreated = 1)” value (IL-1β) was 1.081.

In the case of `Cc1ccc(-c2cc(C(F)(F)F)nn2-c2ccc(S(N)(=O)=O)cc2)cc1` [Celecoxib], the “Bone surface (Micro-CT, femur area of knee joint)” value [1] is reported as 57.5 ± 0.5%, the OARSI score ([2]; vehicle 4) is reported as 2.4 ± 0.4 and the “Total Mankin score” value ([2]; vehicle 7.5) is reported as 4 ± 0.6. The paw withdrawal latencies ([3]; 30 mg/kg oral once a day, 6 days after MIA treatment, vehicle 8.6) was 9.9 ± 2.2 s, the paw withdrawal threshold ([3]; 30 mg/kg oral once a day, 6 days after MIA treatment, vehicle 17.4) was 19.9 ± 4.3 g and the paw withdrawal latencies ([3]; 30 mg/kg oral once a day, 11 days after MIA treatment, vehicle 9.1) was 10.2 ± 0.9 s. For the same molecule, the paw withdrawal threshold ([3]; 30 mg/kg oral once a day, 11 days after MIA treatment, vehicle 18.5) was 20.7 ± 1.7 g, the paw withdrawal latencies ([3]; 30 mg/kg oral once a day, 13 days after MIA treatment, vehicle 9.0) was 10.4 ± 0.9 s and the paw withdrawal threshold ([3]; 30 mg/kg oral once a day, 13 days after MIA treatment, vehicle 18.3) was 21.0 ± 1.6 g. The paw withdrawal latencies ([3]; 30 mg/kg oral once a day, 17 days after MIA treatment, vehicle 9.5) was 10.9 ± 1.8 s, the paw withdrawal threshold ([3]; 30 mg/kg oral once a day, 17 days after MIA treatment, vehicle 19.2) was 22.0 ± 3.4 g and the paw withdrawal latencies ([3]; 30 mg/kg oral once a day, 21 days after MIA treatment, vehicle 9.0) was 11.9 ± 1.5 s. The paw withdrawal threshold ([3]; 30 mg/kg oral once a day, 21 days after MIA treatment, vehicle 18.3) was 24.0 ± 2.9 g, the paw withdrawal latencies ([3]; 30 mg/kg oral once a day, 25 days after MIA treatment, vehicle 9.0) was 11.6 ± 1.0 s and the paw withdrawal threshold ([3]; 30 mg/kg oral once a day, 25 days after MIA treatment, vehicle 18.2) was 23.4 ± 1.9 g. The paw withdrawal latencies ([3]; 30 mg/kg oral once a day, Before MIA treatment (baseline), vehicle 16.8) was 16.0 ± 1.5 s, the paw withdrawal threshold ([3]; 30 mg/kg oral once a day, Before MIA treatment (baseline), vehicle 33.6) was 33.8 ± 2.9 g and the paw withdrawal latencies ([3]; 30 mg/kg oral, 3 days after MIA treatment (before first dose), vehicle 9.4) was 9.2 ± 2.1 s. The paw withdrawal threshold ([3]; 30 mg/kg oral, 3 days after MIA treatment (before first dose), vehicle 19.0) was 18.6 ± 4.1 g, the “weight bearing, weight ratio of right hind limb” value (from here on “weight bearing, weight ratio”) ([4]; 30 mg/kg oral once a day, 6 days after MIA inducement, vehicle 35.5) was 38.5 ± 1.8% and the “weight bearing, weight ratio” value ([4]; 30 mg/kg oral once a day, 11 days after MIA inducement, vehicle 33.8) was 40.0 ± 3.2%. For the same molecule, the “weight bearing, weight ratio” value ([4]; 30 mg/kg oral once a day, 13 days after MIA inducement, vehicle 32.3) was 44.5 ± 0.7%, the “weight bearing, weight ratio” value ([4]; 30 mg/kg oral once a day, 17 days after MIA inducement, vehicle 32.2) was 43.9 ± 1.3% and the “weight bearing, weight ratio” value ([4]; 30 mg/kg oral once a day, 21 days after MIA inducement, vehicle 31.6) was 39.7 ± 3.7%. For the same molecule, the “weight bearing, weight ratio” value ([4]; 30 mg/kg oral once a day, 25 days after MIA inducement, vehicle 33.3) was 41.7 ± 1.9%, the “weight bearing, weight ratio” value ([4]; 30 mg/kg oral once a day, Before MIA inducement (baseline), vehicle 50.6) was 49.3 ± 0.9% and the “weight bearing, weight ratio” value ([4]; 30 mg/kg oral, 3 days after MIA inducement (before first dose), vehicle 36.9) was 34.7 ± 4.0%.
